Measured values taken from patent US20140045823A1 (Neurocrine Biosciences, Inc., priority 2012, published 2014).

Target: T1, human GPR119 (Homo sapiens, UniProt Q8TDV5)
T1 construct: expression vector for human GPR119 cDNA (Acc. No. NP_848566); expressed in transfected cells; Min-6/hGPR119
T1 sequence (Q8TDV5 1-335): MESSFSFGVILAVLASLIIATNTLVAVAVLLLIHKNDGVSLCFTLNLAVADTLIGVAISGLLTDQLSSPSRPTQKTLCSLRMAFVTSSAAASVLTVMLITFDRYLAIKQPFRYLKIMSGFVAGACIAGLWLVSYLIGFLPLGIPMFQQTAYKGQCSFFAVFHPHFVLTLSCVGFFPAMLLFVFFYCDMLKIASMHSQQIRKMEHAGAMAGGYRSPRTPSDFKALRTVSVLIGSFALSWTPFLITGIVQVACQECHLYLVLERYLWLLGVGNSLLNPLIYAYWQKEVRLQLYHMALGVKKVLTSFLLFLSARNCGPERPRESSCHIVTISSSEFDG
Assay: AlphaScreen cAMP assay in MIN6 cells stably transfected with human GPR119
Format: cell-based
Conditions: Min-6/hGPR119 cells, 45 min at room temperature
Experimental: The compounds of formula I according to the invention modulate the activity of the G-protein-coupled receptor GPR119. The effect of the compounds on the activation of GPR119 and on the stimulation of intracellular cAMP concentration is determined using the AlphaScreen cAMP Assay Kit (Cat. No. #6760625R) made by PerkinElmer.
MIN6 cells [Miyazaki J et al. Endocrinology. 1990 July; 127(1):126-32] are stably transfected with an expression vector for human GPR119 cDNA (Acc. No. NP_848566). Min-6/hGPR119 cells are cultured in DMEM, 10% FBS, 50 μM β-mercaptoethanol, 0.3 mg/mL Geniticin, 2 mM GlutaMAX at 37° C. 5% CO2. For the assay, the cells are seeded in Optiplates (white, 384-well, 160 W—barcoded, TC, sterile with lid, Cat. No. #6007688 (Perkin Elmer); 10000 cells/well; 50 μl). The plates covered with lids are then incubated for 24 hours at 37° C./5% CO2. After the medium is aspirated from the wells completely, 10 μl of the test compound are added, the compounds are diluted using stimulating buffer (140 mM NaCl, 3.6 mM KCl, 0.5 mM NaH2PO4, 0.5 mM MgSO4, 1.5 mM CaCl2, 10 mM Hepes, 5 mM NaHCO3; pH 7.4. 0.5 mM IBMX and 0.1% BSA, the final DMSO concentration is 1%). After 45 minutes incubation at room temperature (approx. 20° C.), the cAMP concentrations are determined using the AlphaScreen cAMP Assay Kit (Cat. No. #6760625R from PerkinElmer).

SMILES | EC50 [nM]
CC(C)(C)OC(=O)N1CCC(N(C(=O)c2ccc(-c3ccc(S(C)(=O)=O)cc3)nc2)C2CC2)CC1 [Example 1, 4-{Cyclopropyl-[6-(4-methanesulfonyl-phenyl)-pyridine-3-carbonyl]-amino}-piperidine-1-carboxylic acid tert-butyl ester] | 82
CC(C)OC(=O)N1CCC(N(C(=O)c2ccc(-c3ccc(S(C)(=O)=O)cc3)nc2)C2CC2)CC1 [Example 2, 4-{Cyclopropyl-[6-(4-methanesulfonyl-phenyl)-pyridine-3-carbonyl]-amino}-piperidine-1-carboxylic acid isopropyl ester] | 213
CC(C)(C)OC(=O)N1CCC(N(C(=O)c2ccc(-c3cn[nH]c3)nc2)C2CC2)CC1 [Example 3, 4-{Cyclopropyl-[6-(1H-pyrazol-4-yl)-pyridine-3-carbonyl]-amino}-piperidine-1-carboxylic acid tert-butyl ester] | 204
Cn1cc(-c2ccc(C(=O)N(C3CC3)C3CCN(C(=O)OC(C)(C)C)CC3)cn2)ccc1=O [Example 4, 4-[Cyclopropyl-(1′-methyl-6′-oxo-1′,6′-dihydro-[2,3′]bipyridinyl-5-carbonyl)-amino]-piperidine-1-carboxylic acid tert-butyl ester] | 1460
CC(C)(C)OC(=O)N1CCC(N(C(=O)c2ccc(-c3cnco3)nc2)C2CC2)CC1 [Example 5, 4-[Cyclopropyl-(6-oxazol-5-yl-pyridine-3-carbonyl)-amino]-piperidine-1-carboxylic acid tert-butyl ester] | 62
CC(C)(C)OC(=O)N1CCC(N(C(=O)c2ccc(-c3cnco3)nn2)C2CC2)CC1 [Example 6, 4-[Cyclopropyl-(6-oxazol-5-yl-pyridazine-3-carbonyl)-amino]-piperidine-1-carboxylic acid tert-butyl ester] | 1300
CC(C)(C)OC(=O)N1CCC(N(C(=O)c2ncc(-c3cnco3)cn2)C2CC2)CC1 [Example 7, 4-[Cyclopropyl-(5-oxazol-5-yl-pyrimidine-2-carbonyl)-amino]-piperidine-1-carboxylic acid tert-butyl ester] | 1200
CC(C)(C)OC(=O)N1CCC(N(C(=O)c2ccc(-c3cnco3)cn2)C2CC2)CC1 [Example 8, 4-[Cyclopropyl-(5-oxazol-5-yl-pyridine-2-carbonyl)-amino]-piperidine-1-carboxylic acid tert-butyl ester] | 120
CC(C)(C)OC(=O)N1CCC(N(C(=O)c2cnc(-c3cnco3)nc2)C2CC2)CC1 [Example 9, 4-[Cyclopropyl-(2-oxazol-5-yl-pyrimidine-5-carbonyl)-amino]-piperidine-1-carboxylic acid tert-butyl ester] | 224
Cc1cc(C(=O)N(C2CC2)C2CCN(C(=O)OC(C)(C)C)CC2)cnc1-c1cnco1 [Example 10, 4-[Cyclopropyl-(5-methyl-6-oxazol-5-yl-pyridine-3-carbonyl)-amino]-piperidine-1-carboxylic acid tert-butyl ester] | 748
Cc1noc(C)c1-c1ccc(C(=O)N(C2CC2)C2CCN(C(=O)OC(C)(C)C)CC2)cn1 [Example 11, 4-{Cyclopropyl-[6-(3,5-dimethyl-isoxazol-4-yl)-pyridine-3-carbonyl]-amino}-piperidine-1-carboxylic acid tert-butyl ester] | 136
CC(C)(C)OC(=O)N1CCC(N(C(=O)c2cnc(-c3cnco3)cn2)C2CC2)CC1 [Example 12, 4-[Cyclopropyl-(5-oxazol-5-yl-pyrazine-2-carbonyl)-amino]-piperidine-1-carboxylic acid tert-butyl ester] | 72
Cc1ncoc1-c1ccc(C(=O)N(C2CC2)C2CCN(C(=O)OC(C)(C)C)CC2)cn1 [Example 13, 4-{Cyclopropyl-[6-(4-methyl-oxazol-5-yl)-pyridine-3-carbonyl]amino}-piperidine-1-carboxylic acid tert-butyl ester] | 132
CC(C)(C)OC(=O)N1CCC(N(C(=O)c2cnc(-c3cnco3)c(F)c2)C2CC2)CC1 [Example 14, 4-[Cyclopropyl-(5-fluoro-6-oxazol-5-yl-pyridine-3-carbonyl)-amino]-piperidine-1-carboxylic acid tert-butyl ester] | 145
COC(=O)c1ccc(-n2cnc(C(=O)N(C3CC3)C3CCN(C(=O)OC(C)(C)C)CC3)c2)c(F)c1 [Example 15, 4-{Cyclopropyl-[1-(2-fluoro-4-methoxycarbonyl-phenyl)-1H-imidazole-4-carbonyl]-amino}-piperidine-1-carboxylic acid tert-butyl ester] | 157

The remaining lines, values ahead:

EC50 [nM] | SMILES
261 | CC(C)(C)OC(=O)N1CCC(N(C(=O)c2cnc(-c3ccc(C(=O)NC[C@H]4CCCC[C@H]4O)c(F)c3)nc2)C2CC2)CC1 (stereo in doubt) [Example 168, 4-[Cyclopropyl-(2-{3-fluoro-4-[(2-hydroxy-cyclohexylmethyl)-carbamoyl]-phenyl}-pyrimidine-5-carbonyl)-amino]-piperidine-1-carboxylic acid tert-butyl ester]
66 | CC(C)(C)OC(=O)N1CCC(N(C(=O)c2cn(-c3ccc(C#N)cc3F)cn2)C2CC2)CC1 [Example 16, 4-{[1-(4-Cyano-2-fluoro-phenyl)-1H-imidazole-4-carbonyl]-cyclopropyl-amino}-piperidine-1-carboxylic acid tert-butyl ester]
680 | CC(C)(C)OC(=O)N1CCC(N(C(=O)c2cn(-c3ccc(S(C)(=O)=O)cc3)cn2)C2CC2)CC1 [Example 17, 4-{Cyclopropyl-[1-(4-methanesulfonyl-phenyl)-1H-imidazole-4-carbonyl]-amino}-piperidine-1-carboxylic acid tert-butyl ester]
5 | CC(C)(C)OC(=O)N1CCC(N(C(=O)c2noc(-c3ccc(C#N)cc3F)n2)C2CC2)CC1 [Example 18, 4-{[5-(4-Cyano-2-fluoro-phenyl)-[1,2,4]oxadiazole-3-carbonyl]-cyclopropyl-amino}-piperidine-1-carboxylic acid tert-butyl ester]
21 | CC(C)(C)OC(=O)N1CCC(N(C(=O)c2noc(-c3ccc(S(C)(=O)=O)cc3F)n2)C2CC2)CC1 [Example 19, 4-{Cyclopropyl-[5-(2-fluoro-4-methanesulfonyl-phenyl)-[1,2,4]oxadiazole-3-carbonyl]-amino}-piperidine-1-carboxylic acid tert-butyl ester]
7 | CC(C)(C)OC(=O)N1CCC(N(C(=O)c2noc(-c3ccc(C#N)c(F)c3)n2)C2CC2)CC1 [Example 20, 4-{[5-(4-Cyano-3-fluoro-phenyl)-[1,2,4]oxadiazole-3-carbonyl]-cyclopropyl-amino}-piperidine-1-carboxylic acid tert-butyl ester]
33 | CC(C)(C)OC(=O)N1CCC(N(C(=O)c2noc(-c3ccc(S(C)(=O)=O)c(F)c3)n2)C2CC2)CC1 [Example 21, 4-{Cyclopropyl-[5-(3-fluoro-4-methanesulfonyl-phenyl)-[1,2,4]oxadiazole-3-carbonyl]-amino}-piperidine-1-carboxylic acid tert-butyl ester]
210 | CC(C)(C)OC(=O)N1CCC(N(C(=O)c2nc(-c3ccc(Br)cc3F)no2)C2CC2)CC1 [Example 22, 4-{[3-(4-Bromo-2-fluoro-phenyl)-[1,2,4]oxadiazole-5-carbonyl]-cyclopropyl-amino}-piperidine-1-carboxylic acid tert-butyl ester]
18 | CC(C)(C)OC(=O)N1CCC(N(C(=O)c2coc(-c3ccc(C#N)cc3F)n2)C2CC2)CC1 [Example 23, 4-{[2-(4-Cyano-2-fluoro-phenyl)-oxazole-4-carbonyl]-cyclopropyl-amino}-piperidine-1-carboxylic acid tert-butyl ester]
42 | CC(C)(C)OC(=O)N1CCC(N(C(=O)c2coc(-c3ccc(C#N)c(F)c3)n2)C2CC2)CC1 [Example 24, 4-{[2-(4-Cyano-3-fluoro-phenyl)-oxazole-4-carbonyl]-cyclopropyl-amino}-piperidine-1-carboxylic acid tert-butyl ester]
97 | CC(C)(C)OC(=O)N1CCC(N(C(=O)c2coc(-c3ccc(S(C)(=O)=O)cc3F)n2)C2CC2)CC1 [Example 25]
360 | CCNC(=O)c1ccc(-c2nc(C(=O)N(C3CC3)C3CCN(C(=O)OC(C)(C)C)CC3)co2)cc1 [Example 26, 4-{Cyclopropyl-[2-(4-ethylcarbamoyl-phenyl)-oxazole-4-carbonyl]-amino}-piperidine-1-carboxylic acid tert-butyl ester]
